Measurements published in US20050153870A1, “Medicinal composition for diagnosis, prevention, or therapy of multiple risk factor syndrome” (priority 2002, published 2005).
Marks after values point to notes of the source that are not given here.

Experiments:
Db/db mouse, ob/ob mouse = assay: Improvement of polydipsia and polyurea; assay type: in vivo; conditions: in feed, hereditary diabetic obese mouse
Zucker rats [1] = assay: Blood pressure of Zucker rat (Example 8); assay type: in vivo; conditions: for blood pressure, change vs Zucker control group / blood pressure: 0.1% in feed; for blood pressure: AS-6 group at 0th week 144 ± 6
Method: Zucker rats were raised for 4 weeks with feed in which 4-0-carboxylmethyl ascochlorin (AS-6) was mixed in a content of 0.1%. At the 0th, 2nd and 4th week of initiation of feeding, blood pressure was measured (6 rats/group).

Db/db mouse, Zucker rat = assay: Insulin sensitivity test; assay type: in vivo; conditions: feed containing 0.1% for one week, hereditary obese animal
C57BL/Ksj-db/db mice = assay: AS-6 in feed to db/db mice (Example 4); assay type: in vivo, mouse; conditions: 0.1% in feed, 1 week
Method: C57BL/Ksj-db/db mice, which were model animals of multiple risk factor syndrome, were raised for a week with powered feed containing an ascochlorin derivative, 4-O-carboxymethylascochlorin (AS-6), in a content of 0.1%. Thereafter, the weight, blood sugar, blood insulin, and blood neutral fat were measured.

Zucker rats [2] = assay: AS-6 in feed to Zucker rats for 10 weeks (Example 5); assay type: in vivo, rat; conditions: 0.12% in feed
Method: Zucker rats were divided into two groups. One group was raised with commercially available feed to which 4-O-carboxymethylascochlorin (AS-6) was mixed up to a content of 0.12%. The other group and normal Lean-rat littermate group were raised for 10 weeks with the same commercially available feed containing no AS-6. Thereafter, body weight, white adipose cell weight, blood insulin, blood sugar, and blood lipid were measured (7 mice/group).

CC(C=CC1(C)C(C)CCC(=O)C1C)=CCc1c(O)c(C=O)c(C)c(Cl)c1OCC(=O)O (stereo not drawn) [AS-6, 4-O-carboxymethylascochlorin]
amount of drinking water (Db/db mouse, ob/ob mouse): obese mouse, the amount of drinking water decreases in a dose-dependent manner,
amount of sugar excreted in the urine (Db/db mouse, ob/ob mouse): excreted in the urine significantly decreases.
blood pressure, change vs Zucker control group (Zucker rats [1]; 2nd week): −13.7%(**)
blood pressure (Zucker rats [1]; 2nd week, Zucker control 153 ± 6): 132 ± 5
blood pressure, change vs Zucker control group (Zucker rats [1]; 4th week): −19.9%(**)
blood pressure (Zucker rats [1]; 4th week, Zucker control 156 ± 7): 125 ± 6
decrease in blood pressure in comparison with the Zucker control group (Zucker rats [1]; 2nd week after the initiation of feeding): 13.7%
decrease in blood pressure in comparison with the Zucker control group (Zucker rats [1]; 4th week after the initiation of feeding): 19.9%
sensitivity to insulin (Db/db mouse, Zucker rat): insulin was significantly improved.
Blood sugar, change vs db/db control group (C57BL/Ksj-db/db mice): −30.0%**
Body weight, change vs db/db control group (C57BL/Ksj-db/db mice): ns
Cholesterol, change vs db/db control group (C57BL/Ksj-db/db mice): ns
Free fatty acid, change vs db/db control group (C57BL/Ksj-db/db mice): −21.1%**
Insulin, change vs db/db control group (C57BL/Ksj-db/db mice): ns
Neutral fat, change vs db/db control group (C57BL/Ksj-db/db mice): −38.3%**
Free fatty acid (C57BL/Ksj-db/db mice; db/db control 1.164 ± 0.03): 0.918 ± 0.1 mEq/L
Insulin (C57BL/Ksj-db/db mice; db/db control 31.0 ± 3.6): 34.6 ± 3.5 μU/mL
Body weight (C57BL/Ksj-db/db mice; db/db control 52.9 ± 0.8): 56.3 ± 1.2 g
Cholesterol (C57BL/Ksj-db/db mice; db/db control 109.9 ± 3.3): 114.4 ± 4.3 mg/dL
Neutral fat (C57BL/Ksj-db/db mice; db/db control 378.5 ± 19.3): 223.5 ± 17.7 mg/dL
blood sugar (C57BL/Ksj-db/db mice; db/db control 637.3 ± 28.9): 445.8 ± 32.5 mg/dL
blood sugar, blood free fatty acid, and blood neutral fat (C57BL/Ksj-db/db mice; db/db mice): significantly reduced
Blood sugar (full feeding), change vs Zucker control group (Zucker rats [2]): ns
Body weight, change vs Zucker control group (Zucker rats [2]): ns
Cholesterol, change vs Zucker control group (Zucker rats [2]): ns
Free fatty acid, change vs Zucker control group (Zucker rats [2]): −50.0%
Insulin, change vs Zucker control group (Zucker rats [2]): −23.4%
Neutral fat, change vs Zucker control group (Zucker rats [2]): −49.8%
Phospholipid, change vs Zucker control group (Zucker rats [2]): −14.3%
White adipose cells, change vs Zucker control group (Zucker rats [2]): ns
Free fatty acid (Zucker rats [2]; Zucker control 1.391 ± 0.110): 0.696 ± 0.069
White adipose cells (Zucker rats [2]; Zucker control 4.06 ± 0.09): 3.66 ± 0.11
Cholesterol (Zucker rats [2]; Zucker control 117.4 ± 4.8): 123.6 ± 7.8
Insulin (Zucker rats [2]; Zucker control 176.3 ± 14.7): 135.1 ± 15.6
Phospholipid (Zucker rats [2]; Zucker control 340.8 ± 12.0): 292.1 ± 8.9
Body weight (Zucker rats [2]; Zucker control 362 ± 13): 358 ± 15
Neutral fat (Zucker rats [2]; Zucker control 928.6 ± 47.7): 466.3 ± 60.2
Blood sugar (full feeding) (Zucker rats [2]; Zucker control printed 73.0 ± 14.5): 174.3 ± 19.0
insulin, free fatty acid, neutral fat and phospholipid (Zucker rats [2]; Zucker rats): significantly reduced
